Patent publication US5624936A, “Inhibitors of farnesyl-protein transferase” (Merck & Co., Inc., priority 1996, dated 1997)
Where a name gives a salt, the structure may show the parent alone.

Molecular target: T1, human FPTase (Homo sapiens, UniProt P49354+P49356)
T1 construct: made in house
Test: In vitro inhibition of human farnesyl-protein transferase (FPTase)
Type: biochemical
Settings: 100 nM Ras-CVIM substrate, [3H]-FPP, 30 min; read-out: IC50, inhibitory activity against human FPTase

SMILES	IC50 [µM]
CC[C@H](C)[C@@H](CN1Cc2ccccc2C[C@H]1C(=O)N[C@@H](CCSC)C(=O)O)NC(=O)[C@@H]1CCC(=O)N1 [Example 3, Step B, N-[L-Pyroglutamyl-2(S)-amino-3(S)-methylpentyl]-1,2,3,4-tetrahydro-3(S)-isoquinolinecarbonyl-methionine trifluoroacetate]	< 10
CC[C@H](C)[C@@H](CN1Cc2ccccc2C[C@H]1C(=O)N[C@@H](CCSC)C(=O)O)NC(=O)Cc1c[nH]cn1 [Examples 1. Step G, N-[(1H-imidazol-4-ylacetyl)-2(S)-amino-3(S)-methylpentyl]-1,2,3,4-tetrahydro-3(S)-isoquinolinecarbonyl-methionine trifluoroacetate]	< 10
